According to patent US8906908B2, “Hydroxybupropion analogues for treating drug dependence” (priority 2010, dated 2014):
Like-named read-outs stand apart in the source and are kept apart here.

What was measured:
[1] = molecular target: T1, α4β2-nAChR (Homo sapiens, UniProt P17787+P43681); experiment: 86Rb+ efflux nAChR functional assay, SH-EP1-hα4β2 cells; format: cell-based
T1 construct: expressed in transfected cells; host or cells: SH-EP1 epithelial cells (SH-EP1-hα4β2)
Text: (§1) Cell Lines and Culture: Human embryonic kidney (HEK-293) cells stably expressing human DAT, NET or SERT were maintained as previously described in Eshleman, A. J.; Carmolli, M.; Cumbay, M.; Martens, C. R.; Neve, K. A.; Janowsky, A., J. Pharmacol. Exp. Ther. 1999, 289, (2), 877-885. Use was made of several human cell lines that naturally or heterologously express specific, functional, human nAChR subtypes. Cells of the TE671/RD line naturally expresses muscle-type nAChR (a1β1γδ- or α1*-nAChR), and SH-SY5Y neuroblastoma cells naturally expresses autonomic α3β4*-nAChRs (containing α3, β4, probably α5, and sometimes β2 subunits). Different clones of SH-EP1 epithelial cell lines have been engineered to heterologously express either α4β2-nAChR, which are thought to be the most abundant, high affinity nicotine-binding nAChR in mammalian brain, or α4β4-nAChR, another possible brain nAChR subtype (SH-EP1-hα4β2 or α4β4 cells, respectively). These cells were maintained as low passage number (1-26 from our frozen stocks) cultures to ensure stable expression of native or heterologously-expressed nAChR as previously described (see Lukas, R. J.; Fryer, J. D.; Eaton, J. B.; L., G. C., Some methods for studies of nicotinic acetylcholine receptor pharmacology, in Nicotinic receptors and the Nervous System, Levine, E. D., Ed. CRC Press: Boca Raton, 2002; pp 3-27, incorporated herein by reference in its entirety). Cells were passaged once weekly by splitting just-confluent cultures 1/300 (TE671/RD), 1/5 (SH-SY5Y), or 1/20 (transfected SH-EP1) in serum-supplemented medium to maintain log-phase growth.
(§2) After cells had adhered (generally overnight, but no sooner than 4 h later), the medium was removed and replaced with 250 μL per well of complete medium supplemented with ˜350,000 cpm of ^86Rb^+ (PerkinElmer Life and Analytical Sciences, Boston, Mass.) and counted at 40% efficiency using Cerenkov counting (TriCarb 1900 liquid scintillation analyzer[…]; PerkinElmer Life Sciences).
(§3) After at least 4 h and typically overnight, ^86Rb^+ efflux was measured using the “flip-plate” technique. See Lukas, R. J.; Fryer, J. D.; Eaton, J. B.; L., G. C., Some methods for studies of nicotinic acetylcholine receptor pharmacology, in Nicotinic receptors and the Nervous System, Levine, E. D., Ed. CRC Press: Boca Raton, 2002; pp 3-27, incorporated herein by reference in its entirety). Briefly, after aspiration of the bulk of ^86Rb^+ loading medium from each well of the “cell plate,” each well containing cells was rinsed 3× with 2 mL of fresh ^86Rb^+ efflux buffer (130 mM NaCl, 5.4 mM KCl, 2 mM CaCl2, 5 mM glucose, 50 mM HEPES, pH 7.4) to remove extracellular ^86Rb^+. Following removal of residual rinse buffer by aspiration, the flip-plate technique was used again to simultaneously introduce 1.5 mL of fresh efflux buffer containing drugs of choice at indicated final concentrations from a 24-well “efflux/drug plate” into the wells of the cell plate. After a 5 min incubation, the solution was “flipped” back into the efflux/drug plate, and any remaining buffer in the cell plate was removed by aspiration. Cells remaining in the cell plate were lysed and suspended by addition of 1.5 mL of 0.1 M NaOH, 0.1% sodium dodecyl sulfate to each well.
(§4) Similarly, the sum of ^86Rb^+ in cell plates and efflux/drug plates also determined the efficiency of ^86Rb^+ loading (the percentage of applied ^86Rb^+ actually loaded into cells).
(§5) Specific efflux was then taken as the difference in control samples between total and non-specific ^86Rb^+ efflux. Any intrinsic agonist activity of test drugs was ascertained using samples containing test drug only at different concentrations and was normalized, after subtraction of non-specific efflux, to specific efflux in test drug-free, control samples.

[2] = molecular target: T2, human DA transporters [(h)DAT] (Homo sapiens, UniProt Q01959); experiment: Inhibition of [3H]dopamine uptake into HEK293 cells stably expressing hDAT; format: cell-based; settings: HEK293-hDAT; mean ± standard error of three independent experiments; read-out: monoamine uptake inhibition IC50 [3H]DA
T2 construct: expressed in transfected cells; host or cells: HEK-293
T2 sequence (Q01959 whole entry): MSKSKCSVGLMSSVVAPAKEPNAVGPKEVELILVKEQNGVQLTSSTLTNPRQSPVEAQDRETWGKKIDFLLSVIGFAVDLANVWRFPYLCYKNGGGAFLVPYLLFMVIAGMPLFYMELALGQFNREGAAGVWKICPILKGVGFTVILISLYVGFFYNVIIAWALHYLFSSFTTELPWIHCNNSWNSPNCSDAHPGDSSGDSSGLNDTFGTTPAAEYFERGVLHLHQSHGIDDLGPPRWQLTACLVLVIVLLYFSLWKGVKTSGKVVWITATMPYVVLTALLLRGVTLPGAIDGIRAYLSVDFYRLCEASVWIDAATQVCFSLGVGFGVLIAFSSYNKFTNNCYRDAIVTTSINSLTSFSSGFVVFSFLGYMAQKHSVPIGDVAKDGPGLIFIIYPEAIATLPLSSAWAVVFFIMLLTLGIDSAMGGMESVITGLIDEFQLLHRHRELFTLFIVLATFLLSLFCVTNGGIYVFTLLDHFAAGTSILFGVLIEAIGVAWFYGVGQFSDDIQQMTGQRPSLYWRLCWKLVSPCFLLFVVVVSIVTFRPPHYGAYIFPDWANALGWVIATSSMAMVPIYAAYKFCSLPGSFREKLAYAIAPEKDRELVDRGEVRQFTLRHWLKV
Text: as §1
(§6) See, for example, Damaj, M. I.; Carroll, F. I.; Eaton, J. B.; Navarro, H. A.; Blough, B. E.; Mirza, S.; Lukas, R. J.; Martin, B. R., Mol. Pharmacol. 2004, 66, (3), 675-682 and Eshleman, A. J.; Carmolli, M.; Cumbay, M.; Martens, C. R.; Neve, K. A.; Janowsky, A., J. Pharmacol. Exp. Ther. 1999, 289, (2), 877-885, both incorporated by reference herein in their entireties.

[3] = molecular target: T3, α4β4-nAChR (Homo sapiens, UniProt P30926+P43681); experiment: 86Rb+ efflux nAChR functional assay, SH-EP1-hα4β4 cells; format: cell-based; settings: EC80-EC90 carbamylcholine, parentheses = S.E.M. as multiplication/division factor, read-out: nAChR inhibition IC50 α4β4
T3 construct: expressed in transfected cells; host or cells: SH-EP1 epithelial cells (SH-EP1-hα4β4)
T3 sequence (P43681 29-627 limits assumed): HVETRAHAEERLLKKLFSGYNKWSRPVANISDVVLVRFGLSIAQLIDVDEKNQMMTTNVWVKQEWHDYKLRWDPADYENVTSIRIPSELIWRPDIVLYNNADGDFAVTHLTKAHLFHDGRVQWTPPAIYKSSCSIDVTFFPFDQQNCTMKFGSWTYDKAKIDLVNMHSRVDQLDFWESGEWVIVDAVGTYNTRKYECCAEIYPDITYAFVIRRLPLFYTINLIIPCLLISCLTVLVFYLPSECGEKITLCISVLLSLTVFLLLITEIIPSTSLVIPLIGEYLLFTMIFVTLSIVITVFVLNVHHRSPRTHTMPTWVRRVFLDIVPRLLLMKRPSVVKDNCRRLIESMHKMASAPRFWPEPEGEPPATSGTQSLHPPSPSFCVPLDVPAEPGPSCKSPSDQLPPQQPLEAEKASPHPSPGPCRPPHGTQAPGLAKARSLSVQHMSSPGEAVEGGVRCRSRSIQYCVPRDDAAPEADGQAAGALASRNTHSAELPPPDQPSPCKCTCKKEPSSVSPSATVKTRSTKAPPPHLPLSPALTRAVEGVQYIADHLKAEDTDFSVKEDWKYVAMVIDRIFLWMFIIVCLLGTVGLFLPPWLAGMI
T3 sequence (P30926 22-498): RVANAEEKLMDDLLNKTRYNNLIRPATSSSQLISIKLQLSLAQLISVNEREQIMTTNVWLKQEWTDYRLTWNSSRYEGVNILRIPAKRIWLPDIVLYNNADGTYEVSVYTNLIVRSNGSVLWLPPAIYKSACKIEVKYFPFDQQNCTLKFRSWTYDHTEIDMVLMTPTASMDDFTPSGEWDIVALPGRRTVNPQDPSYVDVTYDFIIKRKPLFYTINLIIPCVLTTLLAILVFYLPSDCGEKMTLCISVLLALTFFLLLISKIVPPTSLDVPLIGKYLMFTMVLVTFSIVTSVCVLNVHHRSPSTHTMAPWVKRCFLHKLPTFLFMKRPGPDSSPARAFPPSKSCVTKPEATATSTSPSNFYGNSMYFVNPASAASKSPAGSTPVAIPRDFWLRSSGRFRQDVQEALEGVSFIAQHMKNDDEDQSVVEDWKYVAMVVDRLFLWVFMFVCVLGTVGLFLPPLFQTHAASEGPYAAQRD
Text: as §1, §2, §3, §4, §5

[4] = molecular target: T4, muscle-type nAChR (α1β1γδ- or α1*-nAChR) (Homo sapiens, UniProt P02708+P07510+P11230+Q07001); experiment: 86Rb+ efflux nAChR functional assay, TE671/RD cells; format: cell-based; settings: parentheses = S.E.M. as multiplication/division factor
T4 construct: Cells of the TE671/RD line naturally expresses muscle-type nAChR; endogenous in cells; host or cells: TE671/RD cells
T4 sequence (P02708 21-457): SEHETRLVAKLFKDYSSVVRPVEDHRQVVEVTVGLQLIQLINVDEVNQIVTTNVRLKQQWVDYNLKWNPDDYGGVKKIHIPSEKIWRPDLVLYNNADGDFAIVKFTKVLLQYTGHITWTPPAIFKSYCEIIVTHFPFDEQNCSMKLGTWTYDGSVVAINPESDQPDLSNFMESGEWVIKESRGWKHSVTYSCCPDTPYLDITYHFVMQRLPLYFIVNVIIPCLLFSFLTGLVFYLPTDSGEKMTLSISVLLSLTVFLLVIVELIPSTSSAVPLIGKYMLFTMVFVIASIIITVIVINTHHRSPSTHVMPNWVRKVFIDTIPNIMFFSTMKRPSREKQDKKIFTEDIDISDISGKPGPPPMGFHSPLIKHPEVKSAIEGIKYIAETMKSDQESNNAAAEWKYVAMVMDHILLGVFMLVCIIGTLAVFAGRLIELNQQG
T4 sequence (P11230 24-501): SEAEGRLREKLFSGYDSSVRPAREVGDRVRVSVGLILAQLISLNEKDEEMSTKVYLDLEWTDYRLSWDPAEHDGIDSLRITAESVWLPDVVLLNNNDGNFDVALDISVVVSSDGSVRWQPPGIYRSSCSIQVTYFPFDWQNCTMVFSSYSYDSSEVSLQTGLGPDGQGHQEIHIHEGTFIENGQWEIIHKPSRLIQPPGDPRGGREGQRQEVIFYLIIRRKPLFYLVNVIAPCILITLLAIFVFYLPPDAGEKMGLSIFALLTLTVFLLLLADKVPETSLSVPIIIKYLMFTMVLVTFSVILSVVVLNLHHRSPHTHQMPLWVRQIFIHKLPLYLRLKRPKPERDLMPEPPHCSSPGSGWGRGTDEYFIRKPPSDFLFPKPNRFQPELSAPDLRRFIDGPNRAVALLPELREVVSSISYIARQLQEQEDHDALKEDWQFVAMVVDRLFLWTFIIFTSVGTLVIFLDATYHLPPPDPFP
T4 sequence (P07510 23-517): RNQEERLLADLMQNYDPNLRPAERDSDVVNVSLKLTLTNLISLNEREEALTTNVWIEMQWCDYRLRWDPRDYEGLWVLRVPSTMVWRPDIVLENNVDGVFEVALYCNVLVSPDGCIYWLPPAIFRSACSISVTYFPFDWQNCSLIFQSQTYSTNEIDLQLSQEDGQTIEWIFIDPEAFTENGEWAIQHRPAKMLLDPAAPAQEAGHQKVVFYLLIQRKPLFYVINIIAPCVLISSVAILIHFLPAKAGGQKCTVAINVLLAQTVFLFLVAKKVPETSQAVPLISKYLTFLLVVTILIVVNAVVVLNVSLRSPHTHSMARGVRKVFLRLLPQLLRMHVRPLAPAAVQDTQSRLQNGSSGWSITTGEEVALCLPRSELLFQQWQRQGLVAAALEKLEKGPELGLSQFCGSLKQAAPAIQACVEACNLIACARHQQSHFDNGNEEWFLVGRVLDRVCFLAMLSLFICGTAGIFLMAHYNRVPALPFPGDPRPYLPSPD
T4 sequence (Q07001 22-517): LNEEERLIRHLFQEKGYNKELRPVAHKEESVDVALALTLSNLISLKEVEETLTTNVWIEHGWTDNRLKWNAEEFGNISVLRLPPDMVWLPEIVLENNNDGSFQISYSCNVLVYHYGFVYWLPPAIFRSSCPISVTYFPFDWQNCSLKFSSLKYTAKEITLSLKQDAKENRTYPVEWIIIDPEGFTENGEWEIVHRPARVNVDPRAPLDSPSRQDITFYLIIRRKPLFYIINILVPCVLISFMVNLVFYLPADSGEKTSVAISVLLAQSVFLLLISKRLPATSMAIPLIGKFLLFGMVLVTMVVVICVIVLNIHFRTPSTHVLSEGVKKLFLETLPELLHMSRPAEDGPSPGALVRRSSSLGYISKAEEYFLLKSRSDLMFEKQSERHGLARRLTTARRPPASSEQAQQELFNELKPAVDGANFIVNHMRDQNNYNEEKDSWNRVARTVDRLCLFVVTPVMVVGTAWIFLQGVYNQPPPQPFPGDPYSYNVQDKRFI
Text: as §1, §2, §3, §4, §5

[5] = molecular target: T5, 5HT transporters [(h)SERT] (Homo sapiens, UniProt P31645); experiment: Inhibition of [3H]serotonin uptake into HEK293 cells stably expressing hSERT; format: cell-based; settings: read-out: monoamine uptake inhibition IC50 [3H]5HT
T5 construct: expressed in transfected cells; host or cells: HEK-293
T5 sequence (P31645 whole entry): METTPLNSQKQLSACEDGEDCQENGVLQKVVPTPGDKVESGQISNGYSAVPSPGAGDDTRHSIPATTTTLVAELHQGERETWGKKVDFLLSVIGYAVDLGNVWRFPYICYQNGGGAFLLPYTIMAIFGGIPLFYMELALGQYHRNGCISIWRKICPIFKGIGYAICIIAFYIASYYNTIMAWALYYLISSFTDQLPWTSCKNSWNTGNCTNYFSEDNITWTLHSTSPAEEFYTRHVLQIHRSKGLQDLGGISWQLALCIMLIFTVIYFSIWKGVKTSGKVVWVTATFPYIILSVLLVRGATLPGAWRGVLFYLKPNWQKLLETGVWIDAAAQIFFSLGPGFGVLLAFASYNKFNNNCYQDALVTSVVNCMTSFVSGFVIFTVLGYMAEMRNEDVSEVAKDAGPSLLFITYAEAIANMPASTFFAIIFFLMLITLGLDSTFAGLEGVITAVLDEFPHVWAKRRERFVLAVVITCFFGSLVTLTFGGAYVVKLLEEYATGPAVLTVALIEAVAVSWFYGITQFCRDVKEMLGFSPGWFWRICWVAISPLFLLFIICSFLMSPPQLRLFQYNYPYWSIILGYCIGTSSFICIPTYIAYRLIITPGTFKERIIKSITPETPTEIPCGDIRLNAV
Text: as §1, §6

[6] = tested on: Male Institute of Cancer Research (ICR) mice; experiment: Locomotor activity, antagonism of nicotine effect; format: in vivo; settings: for AD50 Locomotion: pretreatment 15 min before nicotine […] s.c.
Text: Animals: Male Institute of Cancer Research (ICR) mice (weighing 20-25 g) obtained from Harlan (Indianapolis, Ind.) were used throughout the study. Animals were housed in an Association for Assessment and Accreditation of Laboratory Animal Care-approved facility, were placed in groups of six, and had free access to food and water. Studies were approved by the Institutional Animal Care and Use Committee of Virginia Commonwealth University.
Locomotor Activity: Mice were placed into individual Omnitech photocell activity cages (28×16.5 cm; Omnitech Electronics, Columbus, Ohio) 5 min after subcutaneous administration of either 0.9% saline or nicotine (1.5 mg/kg). Interruptions of the photocell beams (two banks of eight cells each) were then recorded for the next 10 min. Data were expressed as the number of photocell interruptions.

[7] = EC80-EC90 carbamylcholine, SH-EP1-hα4β2, parentheses = S.E.M. as multiplication/division factor, read-out: nAChR inhibition IC50 α4β2
[8] = EC80-EC90 carbamylcholine, read-out: nAChR inhibition IC50 α1*β1
[9] = HEK293-hSERT, mean ± standard error of three independent experiments
[10] = nAChR inhibition IC50 α1*β1, EC80-EC90 carbamylcholine

T1 sequence (P43681 29-627 limits assumed): as the sequence (P43681 29-627 limits assumed) above
T1 sequence (P17787 26-502): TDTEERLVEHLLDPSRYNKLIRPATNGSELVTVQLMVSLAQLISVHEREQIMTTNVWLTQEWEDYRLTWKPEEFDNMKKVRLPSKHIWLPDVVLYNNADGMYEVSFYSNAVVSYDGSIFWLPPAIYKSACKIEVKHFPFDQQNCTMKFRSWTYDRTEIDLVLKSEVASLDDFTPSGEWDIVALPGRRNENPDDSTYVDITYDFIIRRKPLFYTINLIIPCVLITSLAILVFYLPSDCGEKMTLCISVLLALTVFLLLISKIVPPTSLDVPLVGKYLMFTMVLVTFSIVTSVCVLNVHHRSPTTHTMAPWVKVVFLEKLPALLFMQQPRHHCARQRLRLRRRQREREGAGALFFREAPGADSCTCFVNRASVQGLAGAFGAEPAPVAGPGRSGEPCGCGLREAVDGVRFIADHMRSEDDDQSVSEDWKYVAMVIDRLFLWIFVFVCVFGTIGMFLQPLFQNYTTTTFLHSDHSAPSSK

Structure (SMILES) | IC50 [1] [µM] | IC50 [1, 7] [µM] | IC50 [2] [nM] | IC50 [3] [µM] | IC50 [4, 8] [µM] | IC50 [5, 9] [nM] | AD50 Locomotion [6] | IC50 [5] [nM] | ED50 ([6]; Mus musculus, pretreatment 15 min before nicotine 1.5 mg/kg s.c., read-out: AD50 Locomotion) [mg/kg] | IC50 [4, 10] [µM]
C[C@@H]1NC(C)(C)CO[C@@]1(O)c1cc(F)cc(F)c1 [Compound 4o, (2S,3S)-2-(3,5-Difluorophenyl)-3,5,5-trimethylmorpholin-2-ol] | < 10 | 6.3 | 1020 ± 190 | 62 | 23 | > 10000 | IA (IA: AD50 > 15 mg/kg) |  |  | 
C[C@@H]1NC(C)(C)CO[C@@]1(O)c1cccc2ccccc12 [Compound 4q, (2S,3S)-2-(Naphthalen-1-yl)-3,5,5-trimethylmorpholin-2-ol] |  | 9 | 10000 | 13 | 6.6 |  | IA (IA: AD50 > 15 mg/kg) | 1560 ± 215 |  | 
C[C@@H]1NC(C)(C)CO[C@@]1(O)c1ccc2ccccc2c1 [Compound 4r, (2S,3S)-2-(Naphthalen-2-yl)-3,5,5-trimethylmorpholin-2-ol] |  | 6.5 | 453 | 11 | 11 |  | IA (IA: AD50 > 15 mg/kg) | 334 ± 42 |  | 
CC[C@@H]1NC(C)(C)CO[C@@]1(O)c1cccc(Cl)c1 [Compound 4s, (2S,3S)-2-(3-Chlorophenyl)-3-ethyl-5,5-dimethylmorpholin-2-ol] |  | 2.9 | 204 ± 23 | 16 | 14 |  |  | 2500 ± 540 | 10.3 | 
C[C@@H]1N(C)C(C)(C)CO[C@@]1(O)c1cccc(Cl)c1 [Compound 4u, (2S,3S)-2-(3-Chlorophenyl)-3,4,5,5-tetramethylmorpholin-2-ol] |  | 7.1 | 3400 ± 600 | 43 | 57 | > 10000 | IA (IA: AD50 > 15 mg/kg) |  |  | > 33
C[C@@H]1N(C)C(C)(C)CO[C@@]1(O)c1ccc(Cl)cc1 [Compound 4v, (2S,3S)-2-(4-Chlorophenyl)-3,4,5,5-tetramethylmorpholin-2-ol] |  | 42 | 2870 ± 820 | 91 | 43 | 6480 ± 1280 | IA (IA: AD50 > 15 mg/kg) |  |  | > 33
